# In US9914706B2, “N-substituted pyrazolyl guanidine F1F0-ATPase inhibitors and therapeutic uses thereof” (Lycera Corporation, priority 2013, dated 2018):
# Where two headings read alike, the source gives them in different places.
# System: Ramos cells
# Assay: Cytotoxicity in Ramos cells
# Type: cell-based
# Details: read-out: Ramos Cell EC50
# Method: Exemplary compounds described in above Examples were tested for activity against F1F0-ATPase by measuring the ability of the compounds to inhibit ATP synthesis. In addition, the compounds were assessed for cytotoxicity in Ramos cells. Inhibition of F1F0-ATPase activity in synthesizing ATP and cytotoxicity in Ramos cells were measured according to the procedures described in K. M. Johnson et al. Chemistry & Biology 2005, 12, 485-496.
SMILES,EC50 (Homo sapiens),EC50
"O=C(/N=C(/Nc1cc(F)cc(Cl)c1)Nc1cc(C(F)(F)F)nn1CC(O)CO)c1cccc(Cl)c1 (single isomer, unassigned) [Compound A-10]",< 10 µM,–
"O=C(/N=C(/Nc1cc(F)cc(Cl)c1)Nc1cc(C(F)(F)F)nn1CC(O)CO)c1cccc(Cl)c1 (single isomer, unassigned) [Compound A-11]",–,< 10 µM
O=C(/N=C(/Nc1cc(F)cc(Cl)c1)Nc1cc(C(F)(F)F)nn1CCO)c1ccc(C(F)(F)F)cc1 [Compound A-1],< 10 µM,–
N#CCCn1nc(C(F)(F)F)cc1N/C(=N\C(=O)c1ccc(C(F)(F)F)cc1)Nc1cc(F)cc(Cl)c1 [Compound A-2],< 10 µM,–
CC(O)Cn1nc(C(F)(F)F)cc1N/C(=N\C(=O)c1ccc(C(F)(F)F)cc1)Nc1cc(F)cc(Cl)c1 (stereo not shown) [Compound A-3],< 10 µM,–
CCOC(=O)Cn1nc(C(F)(F)F)cc1N/C(=N\C(=O)c1ccc(C(F)(F)F)cc1)Nc1cc(F)cc(Cl)c1 [Compound A-4],< 10 µM,–
O=C(O)Cn1nc(C(F)(F)F)cc1N/C(=N\C(=O)c1ccc(C(F)(F)F)cc1)Nc1cc(F)cc(Cl)c1 [Compound A-5],< 10 µM,–
NC(=O)Cn1nc(C(F)(F)F)cc1N/C(=N\C(=O)c1ccc(C(F)(F)F)cc1)Nc1cc(F)cc(Cl)c1 [Compound A-6],< 10 µM,–
Cc1c(C(F)(F)F)nn(CCO)c1N/C(=N\C(=O)c1ccc(C(F)(F)F)cc1)Nc1cc(F)cc(Cl)c1 [Compound A-7],< 10 µM,–
COc1ccc(C(=O)/N=C(/Nc2cccc(Cl)c2)Nc2cc(C(F)(F)F)nn2CCO)cc1 [Compound A-8],< 10 µM,–
COc1ccc(C(=O)/N=C(/Nc2cccc(C(F)(F)F)c2)Nc2cc(C(F)(F)F)nn2CCO)cc1 [Compound A-9],< 10 µM,–
C=CCn1nc(C(F)(F)F)cc1N/C(=N\C(=O)c1cccc(Cl)c1)Nc1cc(F)cc(Cl)c1 [Compound A-12],< 10 µM,–
O=C(/N=C(/Nc1cc(F)cc(Cl)c1)Nc1cc(C(F)(F)F)nn1-c1ccccc1)c1ccc(Cl)cc1 [Compound A-13],< 10 µM,–
O=C(/N=C(/Nc1cccc(Cl)c1)Nc1cc(C(F)(F)F)nn1-c1ccccc1)c1ccc(Cl)cc1 [Compound A-14],< 10 µM,–
O=C(/N=C(/Nc1cccc(C(F)(F)F)c1)Nc1cc(C(F)(F)F)nn1-c1ccccc1)c1ccc(Cl)cc1 [Compound A-15],< 10 µM,–
O=C(/N=C(/Nc1cc(F)cc(Cl)c1)Nc1cc(C(F)(F)F)nn1-c1ccc(F)cc1)c1ccc(Cl)cc1 [Compound A-16],< 10 µM,–
O=C(/N=C(/Nc1cccc(Cl)c1)Nc1cc(C(F)(F)F)nn1-c1ccc(F)cc1)c1ccc(Cl)cc1 [Compound A-17],< 10 µM,–
O=C(/N=C(/Nc1cccc(C(F)(F)F)c1)Nc1cc(C(F)(F)F)nn1-c1ccc(F)cc1)c1ccc(Cl)cc1 [Compound A-18],< 10 µM,–
O=C(/N=C(/Nc1cc(F)cc(Cl)c1)Nc1cc(C(F)(F)F)nn1-c1ccc(F)cc1)c1cccc(Cl)c1 [Compound A-19],< 10 µM,–
O=C(/N=C(/Nc1cc(F)cc(Cl)c1)Nc1cc(C(F)(F)F)nn1-c1cccc(Cl)c1)c1cccc(Cl)c1 [Compound A-20],< 10 µM,–

SMILES,EC50 (Homo sapiens),EC50
O=C(/N=C(/Nc1cc(F)cc(Cl)c1)Nc1cc(C(F)(F)F)nn1-c1cccc(Cl)c1)c1ccc(C(F)(F)F)cc1 [Compound A-21],< 10 µM,–
O=C(/N=C(/Nc1cccc(Cl)c1F)Nc1cc(C(F)(F)F)nn1-c1cccc(Cl)c1)c1ccc(F)c(F)c1 [Compound A-22],< 10 µM,–
Cc1c(C(F)(F)F)nn(-c2ccc(F)cc2)c1N/C(=N\C(=O)c1cccc(Cl)c1)Nc1cc(F)cc(Cl)c1 [Compound A-23],< 10 µM,–
Cc1c(C(F)(F)F)nn(-c2ccc(F)cc2)c1N/C(=N\C(=O)c1ccc(C(F)(F)F)cc1)Nc1cc(F)cc(Cl)c1 [Compound A-24],< 10 µM,–
Cc1c(C(F)(F)F)nn(-c2ccc(F)cc2)c1N/C(=N\C(=O)c1ccc(F)c(F)c1)Nc1cccc(Cl)c1F [Compound A-25],< 10 µM,–
O=C(/N=C(/Nc1cc(F)cc(Cl)c1)Nc1cc(C(F)(F)F)nn1C1CCCC1)c1cccc(Cl)c1 [Compound A-26],< 10 µM,–
O=C(/N=C(/Nc1cc(F)cc(Cl)c1)Nc1cc(C(F)(F)F)nn1C1CCCCC1)c1cccc(Cl)c1 [Compound A-27],< 10 µM,–
O=C(/N=C(/Nc1cc(F)cc(Cl)c1)Nc1cc(C(F)(F)F)nn1C1CCCCC1)c1ccc(F)c(F)c1 [Compound A-28],< 10 µM,–
O=C(/N=C(/Nc1cc(F)cc(Cl)c1)Nc1ccnn1-c1ccccc1)c1cccc(Cl)c1 [Compound A-29],< 10 µM,–
O=C(/N=C(/Nc1cc(F)cc(Cl)c1)Nc1ccnn1-c1ccccc1)c1ccc(F)c(F)c1 [Compound A-30],< 10 µM,–
COc1cc(OC)cc(-n2nc(C(F)(F)F)cc2N/C(=N\C(=O)c2ccc(F)c(F)c2)Nc2cc(F)cc(Cl)c2)c1 [Compound A-31],< 10 µM,–
O=C(/N=C(/Nc1cc(F)cc(Cl)c1)Nc1cc(C(F)(F)F)nn1-c1cccnc1)c1cccc(Cl)c1 [Compound A-32],< 10 µM,–
O=C(/N=C(/Nc1cc(F)cc(Cl)c1)Nc1cc(C(F)(F)F)nn1C1CCCC1)c1ccc(F)c(F)c1 [Compound A-33],< 10 µM,–
COc1cc(O)cc(-n2nc(C(F)(F)F)cc2N/C(=N\C(=O)c2ccc(F)c(F)c2)Nc2cc(F)cc(Cl)c2)c1 [Compound A-34],< 10 µM,–
O=C(/N=C(/Nc1cc(F)cc(Cl)c1)Nc1cc(C(F)(F)F)nn1-c1cc(O)cc(O)c1)c1ccc(F)c(F)c1 [Compound A-35],< 10 µM,–
O=C(/N=C(/Nc1cc(F)cc(Cl)c1)Nc1cc(C(F)(F)F)nn1C1CCOCC1)c1cccc(Cl)c1 [Compound A-36],< 10 µM,–
CS(=O)(=O)N1CCC(n2nc(C(F)(F)F)cc2N/C(=N\C(=O)c2cccc(Cl)c2)Nc2cc(F)cc(Cl)c2)CC1 [Compound A-37],< 10 µM,–
COC(=O)N1CCC(n2nc(C(F)(F)F)cc2N/C(=N\C(=O)c2cccc(Cl)c2)Nc2cc(F)cc(Cl)c2)CC1 [Compound A-38],< 10 µM,–
O=C(/N=C(/Nc1cc(F)cc(Cl)c1)Nc1cc(C(F)(F)F)nn1C1CCCC1)c1cc(F)c(Cl)cc1Cl [Compound A-39],< 10 µM,–
O=C(/N=C(/Nc1cc(F)cc(Cl)c1)Nc1cc(C(F)(F)F)nn1C1CCCC1)c1cc(F)c(Cl)cc1F [Compound A-40],< 10 µM,–

SMILES,EC50 (Homo sapiens),EC50
Cc1cc(Cl)ccc1C(=O)/N=C(/Nc1cc(F)cc(Cl)c1)Nc1cc(C(F)(F)F)nn1C1CCCC1 [Compound A-41],< 10 µM,–
O=C(/N=C(/Nc1cc(F)cc(Cl)c1)Nc1cc(C(F)(F)F)nn1C1CCCC1)c1ccc(Cl)cc1F [Compound A-42],< 10 µM,–
Cc1c(Cl)cccc1C(=O)/N=C(/Nc1cc(F)cc(Cl)c1)Nc1cc(C(F)(F)F)nn1C1CCCC1 [Compound A-43],< 10 µM,–
O=C(/N=C(/Nc1cc(F)cc(Cl)c1)Nc1cc(C(F)(F)F)nn1C1CCCC1)c1cccc(Cl)c1F [Compound A-44],< 10 µM,–
O=C(/N=C(/Nc1cc(F)cc(Cl)c1)Nc1cc(C(F)(F)F)nn1C1CCCC1)c1ccc(Cl)c(F)c1 [Compound A-45],< 10 µM,–
O=C(/N=C(/Nc1cc(F)cc(Cl)c1)Nc1cc(C(F)(F)F)nn1C1CCCC1)c1ccc(Cl)cc1Cl [Compound A-46],< 10 µM,–
Cc1cc(F)ccc1C(=O)/N=C(/Nc1cc(F)cc(Cl)c1)Nc1cc(C(F)(F)F)nn1C1CCCC1 [Compound A-47],< 10 µM,–
O=C(/N=C(/Nc1cc(F)cc(Cl)c1)Nc1cc(C(F)(F)F)nn1C1CCCC1)c1c(F)cccc1F [Compound A-48],< 10 µM,–
COc1cccc(C(=O)/N=C(/Nc2cc(F)cc(Cl)c2)Nc2cc(C(F)(F)F)nn2C2CCCC2)c1 [Compound A-49],< 10 µM,–
O=C(/N=C(/Nc1cc(F)cc(Cl)c1)Nc1cc(C(F)(F)F)nn1C1CCCC1)c1cccc(F)c1 [Compound A-50],< 10 µM,–
N#Cc1ccc(C(=O)/N=C(/Nc2cc(F)cc(Cl)c2)Nc2cc(C(F)(F)F)nn2C2CCCC2)cc1 [Compound A-51],< 10 µM,–
N#Cc1ccc(C(=O)/N=C(/Nc2cccc(Cl)c2)Nc2cc(C(F)(F)F)nn2C2CCCC2)cc1 [Compound A-52],< 10 µM,–
O=C(/N=C(/Nc1cccc(Cl)c1)Nc1cc(C(F)(F)F)nn1C1CCCC1)c1ccc(Cl)cc1 [Compound A-53],< 10 µM,–
N#Cc1cccc(C(=O)/N=C(/Nc2cc(F)cc(Cl)c2)Nc2cc(C(F)(F)F)nn2C2CCCC2)c1 [Compound A-54],< 10 µM,–
N#Cc1cccc(C(=O)/N=C(/Nc2cccc(Cl)c2)Nc2cc(C(F)(F)F)nn2C2CCCC2)c1 [Compound A-55],< 10 µM,–
O=C(/N=C(/Nc1cc(F)cc(Cl)c1)Nc1cc(C(F)(F)F)nn1C1CCCC1)c1ccccc1Cl [Compound A-56],< 10 µM,–
O=C(/N=C(/Nc1cccc(Cl)c1)Nc1cc(C(F)(F)F)nn1C1CCCC1)c1ccccc1Cl [Compound A-57],< 10 µM,–
"O=C(N=C(Nc1cc(F)cc(Cl)c1)Nc1cc(C(F)(F)F)nn1C1CCCC1)c1ccc(Cl)cc1 [Compound A-58, 4-chloro-N-(((3-chloro-5-fluorophenyl)amino)((1-cyclopentyl-3-(trifluoromethyl)-1H-pyrazol-5-yl)amino)methylene)benzamide]",< 10 µM,–
